From PubChem BioAssay AID1963963 (Molecular Pharmacology Branch, DTP, NCI, 2024)

Tested on: 958667-338-R-J2-PDC tumor spheroids viability
Assay: Anticancer human tumor 958667-338-R-J2-PDC patient-derived colon adenocarcinoma cell line growth inhibition [PI3K]
Settings: spheroids with HUVEC and MSC; for IC50: curve of first compound; for viability, T/C: stronger effect = lower value
Method in brief: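 High-throughput combination screen: PI3K inhibitors crossed with targeted small molecules on complex spheroids of tumor cells, HUVEC and MSCs at 37 degrees C, 5% CO2. Top concentration was at or near clinical Cmax (otherwise 10 microM), with half-log decrements.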

[1] = second compound 0.0316 µM, first compound 0.000316 µM
[2] = second compound 0.0316 µM, first compound 0.001 µM
[3] = second compound 0.0316 µM, first compound 0.00316 µM
[4] = second compound 0.0316 µM, first compound 0.01 µM
[5] = second compound 0.0316 µM, first compound 0.0316 µM
[6] = second compound 0.0316 µM, first compound 0.1 µM
[7] = second compound 0.1 µM, first compound 0.000316 µM
[8] = second compound 0.1 µM, first compound 0.001 µM
[9] = second compound 0.1 µM, first compound 0.00316 µM
[10] = second compound 0.1 µM, first compound 0.01 µM
[11] = second compound 0.1 µM, first compound 0.0316 µM
[12] = second compound 0.1 µM, first compound 0.1 µM
[13] = second compound 0.316 µM, first compound 0.000316 µM
[14] = second compound 0.316 µM, first compound 0.001 µM
[15] = second compound 0.316 µM, first compound 0.00316 µM
[16] = second compound 0.316 µM, first compound 0.01 µM
[17] = second compound 0.316 µM, first compound 0.0316 µM
[18] = second compound 0.316 µM, first compound 0.1 µM
[19] = second compound 1 µM, first compound 0.000316 µM
[20] = second compound 1 µM, first compound 0.001 µM
[21] = second compound 1 µM, first compound 0.00316 µM
[22] = second compound 1 µM, first compound 0.01 µM
[23] = second compound 1 µM, first compound 0.0316 µM
[24] = second compound 1 µM, first compound 0.1 µM
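Note: spheroids exposed to compounds for seven days before readout.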

Compound: CC(C)n1nc(-c2ccc3oc(N)nc3c2)c2c(N)ncnc21 + COc1c(OCCCN2CCOCC2)ccc2c3n(c(=NC(=O)c4cnc(N)nc4)nc12)CCN3
- IC50 (second compound 0.00316 µM): 77.8 nM
- IC50 (second compound 0.01 µM): 60.9 nM
- IC50 (second compound 0.0316 µM): 22.8 nM
- IC50 (second compound 0.1 µM): 9.88 nM
- IC50 (second compound 0.316 µM): < 0.316 nM
- IC50 (second compound 1 µM): < 0.316 nM
- viability, T/C (second compound 0.00316 µM, first compound 0.000316 µM): 88.1%
- viability, T/C (second compound 0.00316 µM, first compound 0.001 µM): 112%
- viability, T/C (second compound 0.00316 µM, first compound 0.00316 µM): 99.2%
- viability, T/C (second compound 0.00316 µM, first compound 0.01 µM): 103%
- viability, T/C (second compound 0.00316 µM, first compound 0.0316 µM): 77.4%
- viability, T/C (second compound 0.00316 µM, first compound 0.1 µM): 42.4%
- viability, T/C (second compound 0.01 µM, first compound 0.000316 µM): 73.6%
- viability, T/C (second compound 0.01 µM, first compound 0.001 µM): 70%
- viability, T/C (second compound 0.01 µM, first compound 0.00316 µM): 85.2%
- viability, T/C (second compound 0.01 µM, first compound 0.01 µM): 71.6%
- viability, T/C (second compound 0.01 µM, first compound 0.0316 µM): 74.7%
- viability, T/C (second compound 0.01 µM, first compound 0.1 µM): 31.3%
- viability, T/C [1]: 69.6%
- viability, T/C [2]: 74.5%
- viability, T/C [3]: 70%
- viability, T/C [4]: 58.1%
- viability, T/C [5]: 47%
- viability, T/C [6]: 25.2%
- viability, T/C [7]: 67.3%
- viability, T/C [8]: 66.1%
- viability, T/C [9]: 62%
- viability, T/C [10]: 44.2%
- viability, T/C [11]: 41%
- viability, T/C [12]: 21.3%
- viability, T/C [13]: 41.4%
- viability, T/C [14]: 37%
- viability, T/C [15]: 34.7%
- viability, T/C [16]: 33.1%
- viability, T/C [17]: 25.1%
- viability, T/C [18]: 14.7%
- viability, T/C [19]: 17.2%
- viability, T/C [20]: 16.5%
- viability, T/C [21]: 13.6%
- viability, T/C [22]: 17.5%
- viability, T/C [23]: 15.8%
- viability, T/C [24]: 11.5%

Compound: Cn1ncnc1[C@H]1c2n[nH]c(=O)c3cc(F)cc(c23)N[C@@H]1c1ccc(F)cc1 + CC(Nc1ncnc2nc[nH]c12)c1cc2cccc(Cl)c2c(=O)n1-c1ccccc1
- IC50 (second compound 0.0316 µM): > 100 nM
- IC50 (second compound 0.1 µM): > 100 nM
- IC50 (second compound 0.316 µM): > 100 nM
- IC50 (second compound 1 µM): > 100 nM
- IC50 (second compound 3.16 µM): > 100 nM
- IC50 (second compound 10 µM): > 100 nM
- viability, T/C [1]: 103%
- viability, T/C [2]: 114%
- viability, T/C [3]: 105%
- viability, T/C [4]: 110%
- viability, T/C [5]: 113%
- viability, T/C [6]: 98%
- viability, T/C [7]: 103%
- viability, T/C [8]: 82.8%
- viability, T/C [9]: 117%
- viability, T/C [10]: 126%
- viability, T/C [11]: 119%
- viability, T/C [12]: 83.6%
- viability, T/C [13]: 120%
- viability, T/C [14]: 114%
- viability, T/C [15]: 111%
- viability, T/C [16]: 116%
- viability, T/C [17]: 118%
- viability, T/C [18]: 94.7%
- viability, T/C [19]: 109%
- viability, T/C [20]: 112%
- viability, T/C [21]: 99.9%
- viability, T/C [22]: 100%
- viability, T/C [23]: 95.2%
- viability, T/C [24]: 96.3%
- viability, T/C (second compound 3.16 µM, first compound 0.000316 µM): 107%
- viability, T/C (second compound 3.16 µM, first compound 0.001 µM): 109%
- viability, T/C (second compound 3.16 µM, first compound 0.00316 µM): 99.2%
- viability, T/C (second compound 3.16 µM, first compound 0.01 µM): 89.9%
- viability, T/C (second compound 3.16 µM, first compound 0.0316 µM): 94.7%
- viability, T/C (second compound 3.16 µM, first compound 0.1 µM): 89.8%
- viability, T/C (second compound 10 µM, first compound 0.000316 µM): 93.7%
- viability, T/C (second compound 10 µM, first compound 0.001 µM): 98.3%
- viability, T/C (second compound 10 µM, first compound 0.00316 µM): 109%
- viability, T/C (second compound 10 µM, first compound 0.01 µM): 89.9%
- viability, T/C (second compound 10 µM, first compound 0.0316 µM): 83.2%
- viability, T/C (second compound 10 µM, first compound 0.1 µM): 88.4%
